Measurements published in patent US5753516A, “Screening method for ligands of the EBI-1 receptor” (priority 1995, dated 1998).

Assays:
NALM 6 cells [1] = experiment: Light scatter analysis of morphological response of NALM 6 cells; assay type: cell-based, human
Method: FIG. 2, Panels A and B. Methionine-enkephalin induces a morphological change in NALM 6 cells. […] Analysis of forward and right angle light scatter was performed using a Becton Dickinson FACS SCAN flow cytometer as described (Sklar et al., 1984). Histograms of light scatter were obtained by analyzing 10,000 cells per sample. Data are expressed as mean channel number (y-axis) vs concentration of MET-ENK (x-axis).
Forward and right angle light scatter analysis of the morphological response to MET-ENK: The effect of MET-ENK on cell morphology were measured using flow cytometric analysis of forward and right angle light scatter as previously described (Sklar et al., 1984). For these studies 10^6 cells were resuspended in one-ml of PBS, activated by the addition of MET-ENK or maintained in the PBS buffer alone, and then, incubated for 5 minutes at 37° C. […] Samples were analyzed on a Becton Dickinson FACS SCAN flow cytometer with excitation at 488 nm (Sklar et al., 1984). Histograms of light scattering were obtained by analyzing 10,000 cells for each sample. Data analysis was performed using the Lysys System software package.

NALM 6 cells [2] = experiment: Migration (chemotaxis) of NALM 6 pre-B ALL cells; assay type: cell-based, human; conditions: for Number of cells at 40 μm from origin: cells preincubated with mAb (MET-ENK line: buffer, alone); for cell counts, migration to MET-ENK without naloxone: spontaneous 1647
human T cells = experiment: Migration of human peripheral blood T cells; assay type: cell-based
[3] = tested on: lymphocytes and macrophages; conditions: cited from earlier work
NALM 6 cells [4] = conditions: cited from earlier work
murine splenocytes = conditions: cited from earlier work
T cells = conditions: literature; cited from earlier work
lymphocytes = conditions: infusion into afferent lymphatics, sheep; cited from earlier work
LAZ 388 cells = experiment: Flow cytometry of surface molecule expression on LAZ 388 cells; assay type: cell-based, human
Method: Immunofluorescence Staining and Flow Cytometric Analysis of Cell Surface Molecules: Cells were resuspended at 1×10^6 /ml in PBS and then incubated for periods of 5 to 120 minutes at 37° C. with MET-ENK at doses of 0 to 10^-5 M. Incubations were terminated by transferring samples to an ice bath and then pelleting the cells by centrifugation at 1800 rpm for 5 minutes at 4° C.
Immunofluorescence staining was carried out in 4-ml tubes maintained in an ice water bath. […] Cells were subsequently fixed within a 2% solution of formalin and maintained in the dark at 10° C. until analyzed.
Flow cytometric analysis was performed using a FACS SCAN Flow Cytometer (Becton Dickinson, Mountain View, Calif.) equipped with a HP9000 Series computer and the Lysys System software analysis package. Data were collected as histograms depicting the fluorescence intensity for 5,000 to 10,000 cells per sample.
The non-binding IgG1 MOPC myeloma protein, anti-macrophage/monocyte specific CD14 (MO2; IgG2) and anti-T cell specific CD3 (OKT3; IgG2a) mAb were employed as nonreactive controls for measuring the autofluorescence of B cells.

NALM 6 cells [5] = experiment: cAMP accumulation in NALM 6 cells; assay type: cell-based, human; conditions: forskolin-activated NALM 6
Method: FIG. 16. […] NALM 6 cells (2×10^6 /ml) were stimulated with forskolin or forskolin+MET-ENK at the concentrations indicated and in the presence of 1 mM isobutyl-1-methylxanthine. Cyclic AMP was assayed after 15 minutes at 37° C. Data are expressed as fmoles of cAMP/minute. Samples were processed as previously described Cobb, Heagy, Dunner et al., 1980; cAMP was measured using a commercial RIA kit.

[6] = LAZ 388, 10^-7 M MET-ENK, untreated 1.0
[7] = LAZ 388, 10^-7 M MET-ENK, untreated 11.4

SMILES: CSCC[C@H](NC(=O)[C@H](Cc1ccccc1)NC(=O)CNC(=O)CNC(=O)[C@@H](N)Cc1ccc(O)cc1)C(=O)O [MET-ENK, Tyr-Gly-Gly-Phe-Met]
- morphological response (light scatter) of NALM 6 cells (NALM 6 cells [1]; 5 minutes at 37° C.): increase in light scatter (right angle and forward)
- lowest MET-ENK concentration causing morphological response (NALM 6 cells [1]; NALM 6): 0.01 nM
- time of exposure for morphological response (NALM 6 cells [1]; NALM 6): ≤ 5 minutes
- Number of cells at 40 μm from origin (NALM 6 cells [2]; MET-ENK 0.01 nM): 238
- cell counts, migration to MET-ENK without naloxone (NALM 6 cells [2]; MET-ENK 1 nM): 2925 cell counts
- Number of cells at 40 μm from origin (NALM 6 cells [2]; MET-ENK 1.0 nM): 407
- cell counts, migration to MET-ENK without naloxone (NALM 6 cells [2]; MET-ENK 100 nM): 3492 cell counts
- Number of cells at 40 μm from origin (NALM 6 cells [2]; MET-ENK 100 nM): 637
- cell migration (cell counts) (NALM 6 cells [2]; NALM 6, peptide 100 nM, spontaneous locomotion 2190): 6952 cell counts
- effect on migration of pre-B ALL cells (NALM 6 cells [2]; NALM 6 and LAZ 221 cells): potent stimulus for the migration of NALM 6 and LAZ 221 (pre-B ALL) but not LAZ 388 (EBV-transformed) cells
- concentration at which effect on migration is detected (NALM 6 cells [2]; NALM 6 and LAZ 221 pre-B ALL cells): ≤ 10 pM
- human lymphocyte / T cell migration (human T cells): stimulate human lymphocyte migration
- lymphocyte trafficking in vivo ([3]; animals): enhance lymphocyte trafficking
- lymphocyte and macrophage migration into ventricles ([3]; injection into cerebroventricles of rodents): elicited lymphocyte and macrophage migration into the ventricles
- lag phase before [Ca^2+ ]i rise (NALM 6 cells [4]): ~ 30 sec
- humoral / antibody response (murine splenocytes): diminished
- T cell aggregation, rosetting, morphology, adhesion molecules (T cells): enhance T cell aggregation
- lymphocyte exit from popliteal nodes (lymphocytes): stimulated small and blast lymphocytes to exit the node and enter the efferent lymph
- CD11a, CD18, CD54 expression, MET-ENK treated vs not (LAZ 388 cells; LAZ 388): equivalent for the MET-ENK-treated (+) and nontreated (-) cells
- CD2 (LFA-2) fluorescence ratio (LAZ 388 cells; [6]): 0.9
- CD49b (VLA-α2 chain) fluorescence ratio (LAZ 388 cells; [6]): 1.0
- VLA-3 fluorescence ratio (LAZ 388 cells; [6]): 1.0
- VLA-5 fluorescence ratio (LAZ 388 cells; [6]): 1.0
- CD72 fluorescence ratio (LAZ 388 cells; LAZ 388, 10^-7 M MET-ENK, untreated 1.4): 1.7
- CD11b (Mac 1) fluorescence ratio (LAZ 388 cells; LAZ 388, 10^-7 M MET-ENK, untreated 1.5): 1.5
- CD20 fluorescence ratio (LAZ 388 cells; LAZ 388, 10^-7 M MET-ENK, untreated 1.7): 1.7
- VLA-1 fluorescence ratio (LAZ 388 cells; LAZ 388, 10^-7 M MET-ENK, untreated 1.8): 2.0
- CD19 fluorescence ratio (LAZ 388 cells; LAZ 388, 10^-7 M MET-ENK, untreated 8.6): 8.0
- CD22 fluorescence ratio (LAZ 388 cells; [7]): 11.1
- CD29 (VLA-β chain) fluorescence ratio (LAZ 388 cells; [7]): 11.2
- VLA-β; DE9N fluorescence ratio (LAZ 388 cells; LAZ 388, 10^-7 M MET-ENK, untreated 11.5): 11.1
- CD18 (Integrin β chain) fluorescence ratio (LAZ 388 cells; LAZ 388, 10^-7 M MET-ENK, untreated 11.9): 10.1
- CD11a (LF1α) fluorescence ratio (LAZ 388 cells; LAZ 388, 10^-7 M MET-ENK, untreated 12.4): 11.4
- CD54 (ICAM-1) fluorescence ratio (LAZ 388 cells; LAZ 388, 10^-7 M MET-ENK, untreated 18.7): 16.6
- CD58 (LFA-3) fluorescence ratio (LAZ 388 cells; LAZ 388, 10^-7 M MET-ENK, untreated 22.4): 21.8
- CD45 (T200) fluorescence ratio (LAZ 388 cells; LAZ 388, 10^-7 M MET-ENK, untreated 27.4): 27.3
- CD23 fluorescence ratio (LAZ 388 cells; LAZ 388, 10^-7 M MET-ENK, untreated 68.2): 70.7
- CD44 (homing receptor) fluorescence ratio (LAZ 388 cells; LAZ 388, 10^-7 M MET-ENK, untreated 79.0): 84.6
- cAMP production in NALM 6 cells (NALM 6 cells [5]): enhancement in the production of cAMP
- cAMP production in NALM 6 cells (NALM 6 cells [5]; listed as Methionine-enkephalin): potentiates cAMP accumulation
